# Measured values taken from US20190100794A1, “Blood matrix metalloproteinase 9 (MMP9) is a predictive biomarker for cardiac diseases and disorders” (University of Rochester, priority 2017, published 2019).
# Tests used:
# [1] = tested on: ERK5 in platelets; experiment: Platelet activation by FACS P-selectin expression after TRAP6 stimulation, with ERK5 inhibitor pre-incubation; assay type: cell-based, human; conditions: platelets from healthy volunteers or NSTEMI patients; BIX 02189 0-100 μM, 30 minutes; TRAP6 10 μM, 15 minutes; P<0.05
# Procedure: (FIG. 4A) All patients were given 325 mg aspirin at least 30 minutes prior to blood draw. Platelets were isolated from healthy volunteer subjects (control) or from patients with STEMI or NSTEMI. ERK5 activation was assessed by Western blotting using a phosphor-specific antibody (P-ERK5). A pan-ERK5 antibody was used to detect total ERK5 and the ratio (P-ERK5/ERK5) was used to report ERK5 activity as mean±SEM, n=10-13. *p<0.05 control vs. STEMI, **p=0.01 control vs NSTEMI. The molecular weight is indicated in kiloDaltons (kDa). (FIG. 4B) All patients were given 325-mg aspirin at least 30 minutes before blood draw. […] Platelet activation was assessed by fluorescence-activated cell sorting by P-selectin expression, mean fluorescence intensity (MFI)±SEM, all performed in quadruplicate in each group, n=4. *P<0.05 between NSTEMI/TRAP6 and NSTEMI/TRAP6+BIX 02189 and **P<0.05 control/TRAP6 and control/TRAP6+BIX 02189.
# For each study subject, blood was obtained by a trained medical professional into citrate plasma tubes, then centrifuged in a tabletop centrifuge at 1100 rpm for 15 mins. […] This reaction was then stopped by adding 100 μL of 2% formalin to each reaction, and then quantification of platelet surface P-selectin was made possible using an Accuri Flow Cytometer (BD Biosciences) at 10K events per sample. […] Platelet surface p-selectin was quantified in quadruplicate using the geometric mean. […]
# [2] = biological target: T1, platelet cyclooxygenase (COX) (Homo sapiens, UniProt P23219); experiment: Plasma TxB2 concentration by ELISA as marker of aspirin inhibition of platelet cyclooxygenase; assay type: in vivo; conditions: STEMI and NSTEMI patients given 325 mg aspirin at least 30 min before blood draw, versus healthy volunteers not treated with aspirin
# T1 construct: endogenous in cells; plasma TxB2 measured by ELISA
# Procedure: Blood was taken from patients immediately upon presentation with STEMI or NSTEMI and compared to healthy volunteer subjects. Each patient had been given 325 mg aspirin at least 30 mins prior to the blood draw. Plasma was isolated and biomarker concentration was evaluated by ELISA. Plasma TxB2 concentration served as a surrogate marker to assess for differences in efficacy of aspirin between groups, comparing this to healthy volunteer subjects (control) not taking aspirin. […] ELISA=Enzyme-Linked Immunosorbant Assay.
# Each patient was treated with 325 mg aspirin in the ambulance, in the ED, or hospital least 30 minutes prior to blood draw.
# Enzyme-linked immunosorbant assays (ELISAs) were conducted according to the manufacturer's instructions using the sandwich ELISA technique. […] The ELISA for plasma thromboxane B2 (cat#501020) was purchased from Cayman Chemicals.
# [3] = biological target: T2, PAR1 (Homo sapiens, UniProt P25116); conditions: triple therapy of DAPT plus vorapaxar, cited from earlier work
# T2 construct: Thrombin-Receptor Antagonist Vorapaxar in Acute Coronary Syndromes (TRACER) study; host or cells: patients of a clinical trial (Tricoci P, et al., 2012, N Engl J Med)
# T2 sequence (P25116 22-425): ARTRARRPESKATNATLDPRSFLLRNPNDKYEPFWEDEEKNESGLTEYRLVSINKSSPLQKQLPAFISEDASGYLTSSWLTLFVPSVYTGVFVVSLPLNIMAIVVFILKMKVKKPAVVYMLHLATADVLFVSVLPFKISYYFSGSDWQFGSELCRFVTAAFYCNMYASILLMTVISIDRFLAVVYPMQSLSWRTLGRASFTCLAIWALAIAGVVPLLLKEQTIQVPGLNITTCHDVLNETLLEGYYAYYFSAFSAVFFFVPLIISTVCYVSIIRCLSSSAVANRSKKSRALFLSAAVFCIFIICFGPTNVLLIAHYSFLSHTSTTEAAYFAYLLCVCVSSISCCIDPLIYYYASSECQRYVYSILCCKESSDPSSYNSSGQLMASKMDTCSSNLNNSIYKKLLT
# T1 sequence (P23219 24-599): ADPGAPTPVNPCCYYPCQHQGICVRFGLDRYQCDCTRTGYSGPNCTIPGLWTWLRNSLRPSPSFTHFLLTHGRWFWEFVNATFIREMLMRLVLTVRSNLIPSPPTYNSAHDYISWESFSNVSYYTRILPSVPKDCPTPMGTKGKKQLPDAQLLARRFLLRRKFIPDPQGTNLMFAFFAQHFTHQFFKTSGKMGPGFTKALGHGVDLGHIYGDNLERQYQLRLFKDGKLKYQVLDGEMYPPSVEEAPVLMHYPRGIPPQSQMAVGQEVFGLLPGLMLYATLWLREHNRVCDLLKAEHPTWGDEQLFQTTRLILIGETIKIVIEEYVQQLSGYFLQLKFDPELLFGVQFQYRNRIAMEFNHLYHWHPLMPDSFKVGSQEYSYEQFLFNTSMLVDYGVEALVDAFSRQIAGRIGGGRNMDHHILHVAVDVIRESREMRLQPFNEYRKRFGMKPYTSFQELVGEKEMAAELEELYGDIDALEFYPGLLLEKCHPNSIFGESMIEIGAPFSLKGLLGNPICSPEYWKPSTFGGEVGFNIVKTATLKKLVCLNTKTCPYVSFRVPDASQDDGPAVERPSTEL
smiles,measurement,setting,value
CN(C)Cc1cccc(N/C(=C2\C(=O)Nc3cc(C(=O)N(C)C)ccc32)c2ccccc2)c1 [BIX 02189],"TRAP6-induced platelet activation (P-selectin expression, MFI)",[1],prevents platelet activation
CC(=O)Oc1ccccc1C(=O)O [aspirin],plasma TxB2 concentration,[2],decrease
CCOC(=O)N[C@@H]1CC[C@@H]2[C@@H](C1)C[C@H]1C(=O)O[C@H](C)[C@H]1[C@H]2/C=C/c1ccc(-c2cccc(F)c2)cn1 [vorapaxar],relative reduction in the primary end point,[3]; nonsignificant,8%
same,bleeding,[3],trend toward clinically significant bleeding
